Experimental data: paper PMC2852842, “Marine Natural Meroterpenes: Synthesis and Antiproliferative Activity” (Marine Drugs, 2010)
Values after ≈ are worked out from the molar mass of the structure shown. Read-outs that look alike come from different tables or passages of the source. Blank lines part the entries; values can stand above or below the compound they belong to.

Columns and labels:
[1] = tested on: Sphaerechinus granularis eggs; test: Inhibition of sea urchin egg division; format: cell-based; conditions: for IC50: read-out: IC50 S. granularis
Experimental: (§1) For cytotoxic assays on sea urchins, meroterpenes were dissolved in an egg suspension (described in the experimental section), and their ability to inhibit 50% of cell division (IC50) was estimated. Each experiment was carried out in triplicate and an average taken.
(§2) For antiproliferative assays on sea urchin eggs, we used a previously described method.

[2] = tested on: Paracentrotus lividus eggs; test: Inhibition of sea urchin egg division; format: cell-based
Experimental: as §1, §2

[3] = tested on: PA1 ovary teratocarcinoma cells; test: Resazurin reduction test (RRT) cytotoxicity; format: cell-based, human; conditions: for IC50: Homo sapiens
Experimental: (§3) To provide information on their antiproliferative activity against solid cancers, the six meroterpenes were tested on three human carcinoma cell lines corresponding to cancers commonly observed in Western countries: MCF7 (breast), PA1 (ovary) and PC3 (prostate). To obtain additional information on their specificity for human cell lines and their specificity for cancer versus normal cell lines, each compound was tested versus L-929 murine immortalized cells and human normal fibroblasts. To mimic what happens in vivo, assays were carried out on exponentially growing cells cultured in the presence of 10% serum. The growth inhibitory effect was determined by measuring, after a 48 hour exposure to each chemical, the metabolic activity of treated and control cultures using the resazurin reduction test (RRT), which measures the amount of fluorescent resofurin produced by living cells. […] A dose-dependent inhibition of cell proliferation was only observed for epiconicol (3a). […] The toxicity of epiconicol observed in our model is in agreement with data obtained by Caroll and co-workers on a panel of cancer cells.
(§4) Human primary fibroblasts were purchased from Biopredic International (Rennes, France). Immortalized murine L929 cells and human MCF7 breast adenocarcinoma, PA1 ovary teratocarcinoma and PC3 androgen-resistant prostate carcinoma cells were obtained from the European Collection of Cell Cultures (ECACC, Salibury, UK). All were cultured at 37 °C under 5% CO2 and maintained in Eagle’s minimum essential medium (Gibco-BRL, Paisley, Scotland) supplemented with 10% fetal calf serum, vitamins and antibiotics (Gibco™, Cergy-Pontoise, France) as described previously.
(§5) The cytotoxicity of each treatment was determined after a 48 h exposure to each chemical (6 concentrations in triplicate, each in DMSO 0.5%) by means of the resazurin reduction test (RRT) that measures the amount of fluorescent resorufin produced by living cells. Assays were carried out at 530/590 nm accordingly to the procedure described by Barthomeuf et al.. IC50 values (mean ± S.D.) were calculated with the ALLFIT program and were expressed in μM.

[4] = tested on: MCF7 breast adenocarcinoma cells; test: Resazurin reduction test (RRT) cytotoxicity; format: cell-based, human; conditions: for IC50: Homo sapiens
Experimental: as §3, §4, §5

[5] = tested on: L-929 murine immortalized cells; test: Resazurin reduction test (RRT) cytotoxicity; format: cell-based; conditions: Mus musculus
Experimental: as §3, §4, §5

human normal fibroblasts = test: Resazurin reduction test (RRT) cytotoxicity; format: cell-based; conditions: Fibroblast
Experimental: as §3, §4, §5

[6] = tested on: PC3 androgen-resistant prostate carcinoma cells; test: Resazurin reduction test (RRT) cytotoxicity; format: cell-based; conditions: Homo sapiens
Experimental: as §3, §4, §5

S.s granularis eggs = test: HPLC analysis of cytoplasmic extracts of treated sea urchin eggs; format: in vitro ADME, Sphaerechinus granularis; conditions: eggs treated with 5 μM
Experimental: To test the latter hypothesis, S.s granularis eggs were treated with 5 μM of methoxyconidiol, a concentration that inhibits their division. Sea urchin eggs were incubated 1, 40 and 90 minutes post-fertilization (p.f.) in the presence of methoxyconidiol. Cytoplasmic extracts of treated and control eggs were further prepared. Organic extracts of the cytoplasmic preparations were finally obtained and analyzed by HPLC (Figure 3).
Figure 3 HPLC analysis of methoxyconidiol (System WATERS, column: synergy 4 μm RP max; elution water: methanol under a gradient; UV detection 285 nm; flow: 0.3 mL/min) A: control compound (methoxyconidiol) B: analysis after Solid Phase Extraction at 1, 40 and 90 minutes after fertilization (min p.f.).
Preparation of cytoplasmic extracts was based on the technique described by Collas and Poccia. Gametes of P. lividus were collected in two separate beakers. Sperm was maintained undiluted on ice and eggs were stored at 19 °C until use. Sperm was diluted to 10% in Filtered Sea Water (FSW) and eggs were at 26 eggs/μL in FSW. […]
Cytoplasmic extracts of treated and control eggs were extracted with CH3OH and CH2Cl2 and analyzed by HPLC. […] This fraction was analyzed in HPLC (column: Phenomenex synergy 4μ max RP; elution with water and methanol under gradient, starting from 30% to 0% of water during 15 minutes; flow: 0.3 mL/min; detection photodiode array, UV at 285 nm).

sea urchin embryos = tested on: sea urchin embryos; parameters: method as in PMID 17448456; conditions: cited from earlier work
Micrococcus luteus = test: Microtiter Broth Dilution antibacterial assay; format: cell-based; conditions: for antibacterial effect (in words): M. luteus; for MIC: Micrococcus luteus, 24 h
Experimental: (§6) The Microtiter Broth Dilution Method on gram negative (Escherichia coli) and gram positive (Micrococcus luteus) bacteria was used. Meroterpenes dissolved in DMSO were added to bacteria suspensions (5:100 v:v) for 24 hours. The assay was carried out in triplicate. Bacterial growth was evaluated by absorbance measurement (630 nm). The minimum concentration that inhibits (MIC) bacterial growth was determined for each compound on each bacterial strain.
(§7) The antibacterial assay used was based on the previously described method published by the […].

Escherichia coli = test: Microtiter Broth Dilution antibacterial assay; format: cell-based; conditions: for antibacterial effect (in words): E. coli
Experimental: as §6, §7

Staphyclococcus aureus = tested on: Staphyclococcus aureus; parameters: method as in PMID 3404153, PMID 7608321; conditions: cited from earlier work
Streptococcus faecalis = tested on: Streptococcus faecalis; parameters: method as in PMID 3404153, PMID 7608321; conditions: cited from earlier work
Micrococus luteus = tested on: Micrococus luteus; parameters: method as in PMID 17448456; conditions: cited from earlier work
[7] = tested on: MCF7, PA1, PC3, L-929 cells and human normal fibroblasts; test: Resazurin reduction test (RRT) cytotoxicity, whole panel of cell lines; format: cell-based; conditions: span over the cell lines, 48 hour exposure, read-out: IC50, varied with the cell lines
Experimental: To provide information on their antiproliferative activity against solid cancers, the six meroterpenes were tested on three human carcinoma cell lines corresponding to cancers commonly observed in Western countries: MCF7 (breast), PA1 (ovary) and PC3 (prostate). To obtain additional information on their specificity for human cell lines and their specificity for cancer versus normal cell lines, each compound was tested versus L-929 murine immortalized cells and human normal fibroblasts. To mimic what happens in vivo, assays were carried out on exponentially growing cells cultured in the presence of 10% serum. The growth inhibitory effect was determined by measuring, after a 48 hour exposure to each chemical, the metabolic activity of treated and control cultures using the resazurin reduction test (RRT), which measures the amount of fluorescent resofurin produced by living cells. […] A dose-dependent inhibition of cell proliferation was only observed for epiconicol (3a). […]
as §5, with “Assays were carried out at 530/590 nm accordingly to the procedure described by Barthomeuf et al..” left out

[8] = Sphaerechinus granularis, 85 min
[9] = Paracentrotus lividus, 85 min, read-out: IC50 P. lividus, egg division, 85 minutes after fertilization

IC50 ([1]; Sphaerechinus granularis, 85 min, egg division, 85 minutes after fertilization): > 25 µM
IC50 ([2]; Paracentrotus lividus, 85 min, egg division, 85 minutes after fertilization, read-out: IC50 P. lividus): > 25 µM
SMILES: COc1ccc(O)c([C@@H]2C=C(C)CC[C@@H]2C(C)(C)OC)c1 (relative stereo) [5b]

SMILES: COC(C)(C)[C@H]1CCC(C)=C[C@H]1c1cc(O)ccc1O [5a, methoxyconidiol]
IC50 ([1]; egg division, 85 minutes after fertilization, listed as methoxyconidiol): 4.3 µM
IC50 ([1]; egg division, 85 minutes after fertilization): 0.8 µM
IC50 ([2]; egg division, 85 minutes after fertilization, listed as methoxyconidiol, read-out: IC50 P. lividus): 0.8 µM
IC50 ([2]; egg division, 85 minutes after fertilization, read-out: IC50 P. lividus): 4.3 ± 0.1 µM
IC50 ([3]; PA1, 48 hour exposure, 10% serum, RRT, read-out: IC50): > 100 µM
IC50 ([4]; MCF7, 48 hour exposure, 10% serum, RRT, read-out: IC50): > 100 µM
IC50 ([5]; L929, L-929, 48 hour exposure, 10% serum, RRT, read-out: IC50): > 100 µM
IC50 (human normal fibroblasts; human normal fibroblasts, 48 hour exposure, 10% serum, RRT, read-out: IC50): > 100 µM
IC50 ([6]; PC3, 48 hour exposure, 10% serum, RRT, read-out: IC50): > 100 µM
level of the compound in cytoplasmic extracts during incubation (S.s granularis eggs; 1, 40 and 90 minutes post-fertilization, HPLC): did not decrease significantly
penetration through sea urchin cell membranes (S.s granularis eggs; presence in the cytoplasm): penetrates through sea urchin cell membranes
melting point: 197 °C
effect on sea urchin embryos during cell division (sea urchin embryos): disturbs mitotic spindle assembly leading to a cell cycle arrest during metaphase/anaphase transition

SMILES: Cc1ccc2c(c1)-c1cc(O)ccc1OC2(C)C [4a, didehydroconicol]
activity on egg division (in words) ([1]; S. granularis eggs): inactive
IC50 [1, 8]: > 25 µM
IC50 [2, 9]: 11.3 ± 0.8 µM
IC50 ([3]; 48 h): > 100 µM
IC50 ([4]; MCF7, 48 h): > 100 µM
IC50 ([5]; L929, 48 h): > 100 µM
IC50 (human normal fibroblasts; Homo sapiens, 48 h): > 100 µM
IC50 ([6]; 48 h): > 100 µM
antibacterial effect (in words) (Micrococcus luteus): weakly active
MIC (Micrococcus luteus): 500 µM (≈ 120 µg/mL)

SMILES: COc1ccc2c(c1)[C@H]1C=C(C)CC[C@H]1C(C)(C)O2 (relative stereo) [3b]
IC50 [1, 8]: > 25 µM
IC50 [2, 9]: > 25 µM
antibacterial effect (in words) (Escherichia coli): totally inactive
antibacterial effect (in words) (Micrococcus luteus): totally inactive

SMILES: COc1ccc2c(c1)-c1cc(C)ccc1C(C)(C)O2 [4b, O-methyldidehydroconicol]
IC50 [1, 8]: > 25 µM
IC50 [2, 9]: > 25 µM
antibacterial effect (in words) (Escherichia coli): totally inactive
antibacterial effect (in words) (Micrococcus luteus): totally inactive

SMILES: CC(C)=CCCC1(C)C=Cc2cc(O)ccc2O1 (centres unmarked) [cordiachromene A]
growth inhibition (in words) (Staphyclococcus aureus): moderately inhibits
growth inhibition (in words) (Streptococcus faecalis): moderately inhibits
growth inhibition (in words) (Micrococus luteus): moderately inhibits

SMILES: CC1=C[C@@H]2c3cc(O)ccc3OC(C)(C)[C@@H]2CC1 [3a, epiconicol]
IC50 [1, 8]: 9.8 ± 1.3 µM
cultures killed ([3]; PA1, at 5 μM): 30%
cultures killed ([4]; MCF7, at 5 μM): 30%
IC50 [7]: 37 to 69 µM
antibacterial effect (in words) (Escherichia coli): weakly active
MIC (Escherichia coli; Escherichia coli, 24 h): 800 µM (≈ 195 µg/mL)
antibacterial effect (in words) (Micrococcus luteus): weakly active
MIC (Micrococcus luteus): 100 µM (≈ 24.4 µg/mL)
